Experimental data published in patent publication US20130064712A1, “Composite comprising at least one type of perfluoroalkyl-perfluoro-phthalocyanine” (priority 2009, published 2013).

Assays:
[1] = Singlet oxygen quantum yield; format: physicochemical
[2] = test system: Jurkat cells; test: Accumulation of free F64PcZn in Jurkat cells; format: cell-based, human; settings: free F64PcZn incubated with the cell suspensions
From the text: If the composite is used also on human skin there is a probability of PS loss by the photoactive foil. In order to protect the human body against undesired phototoxic effects it is important to make sure that the free molecules are not able to enter human cells.
Laser Phys. 13:22-29 b) M. Regehly , K. Greish, F. Rancan, H. Maeda, B. Röder: Water-soluble polymer conjugates of ZnPP for photodynamic therapy, Bioconjugate Chemistry, 18 (2007) 494-499. c) K. Chen, A. Preuβ, S. Hackbarth, M. Wacker, K. Langer, B. Röder: Novel photosensitizer-protein nanoparticles for Photodynamic Therapy: Photophysical characterization and in vitro investigations, J. Photochem. Photobiol.: B, in press May 2009). It is important to mention that phthalocyanines also belong to the class of tetrapyroles and thus the above comparison is meaningful. Thus, incubating the cell suspensions according to the procedure described in a) Paul A, Hackbarth S, Mölich A, Seifert M, Röder B (2003) Comparative Study on the Photosensitization of Jurkat Cells in vitro by Pheophorbide-a and a Pheophorbide-a Diaminobutane polypropylene-imine Dendrimer Complex. Laser Phys. […]

Substance: 1, 4, 8, 11, 15, 18, 22, 25-octafluoro-2, 3, 9, 10, 16, 17, 23, 24-octa-perfluoro-isopropyl-phthalocyanine [F64PcZn]
- singlet oxygen quantum yield [1]: around 56%
- accumulation of the dye inside the cells [2]: undetectable accumulation
